Test results: publication PMC2631656 (Journal of medicinal chemistry, 2008)
Like-named read-outs stand apart in the source and are kept apart here.

Legend:
[1] = tested on: PSMA^+ PC-3 PIP and PC-3 flu xenografts; assay: PET-CT imaging, PC-3 PIP and PC-3 flu xenografts; assay type: in vivo; settings: dynamic scan 94-120 min p.i., i.v.
[2] = tested on: PC-3 PIP (PSMA^+) and PC-3 flu (PSMA^-) xenografts

## O=C(O)CCC(NC(=O)NC(CCCCNC(=O)c1ccc([18F])cc1)C(=O)O)C(=O)O (stereo not drawn) [Compound [^18F]6, 2-[3-[1-carboxy-5-(4-[^18F]fluoro-benzoylamino)-pentyl]-ureido]-pentanedioic acid]
[1]
  uptake pattern on PET: easily observed within PSMA^+ PIP tumor, none within flu tumor, high renal uptake and a modest degree of liver uptake
[2]; 30 min p.i.
  uptake in PC-3 PIP tumor: 8.6 ± 3.1 % ID/g
  uptake in PC-3 flu tumor: 0.8 ± 0.3 % ID/g
  uptake in bladder: 6.8 ± 3.5 % ID/g
  uptake in blood: 2.5 ± 1.7 % ID/g
  uptake in heart: 0.8 ± 0.1 % ID/g
  uptake in kidney: 72 ± 3 % ID/g
  uptake in large int.: 1.2 ± 0.8 % ID/g
  uptake in liver: 8.7 ± 1.8 % ID/g
  uptake in lung: 1.7 ± 0.3 % ID/g
  uptake in muscle: 2.4 ± 3.1 % ID/g
  uptake in pancreas: 0.8± 0.1 % ID/g
  uptake in small int.: 1.7 ± 0.7 % ID/g
  uptake in spleen: 12.7 ± 0.4 % ID/g
  uptake in stomach: 0.8 ± 0.1 % ID/g
[2]; 60 min p.i.
  uptake in PC-3 PIP tumor: 6.4 ± 0.9 % ID/g
  uptake in bladder: 17 ± 21 % ID/g
  uptake in heart: 0.2 ± 0.02 % ID/g
  uptake in kidney: 48 ± 5 % ID/g
  uptake in large int.: 0.5 ± 0.1 % ID/g
  uptake in liver: 5.8 ± 0.6 % ID/g
  uptake in lung: 0.5 ± 0.1 % ID/g
  uptake in muscle: 0.5 ± 0.7 % ID/g
  uptake in small int.: 0.6 ± 0.2 % ID/g
  uptake in spleen: 7.2 ± 1.6 % ID/g
  uptake in stomach: 0.25 ± 0.1 % ID/g
[2]; 2 h p.i.
  uptake in PC-3 PIP tumor: 3.7 ± 1.2 % ID/g
  uptake in PC-3 flu tumor: 0.25 ± 0.1 % ID/g
  uptake in heart: 0.15 ± 0.05 % ID/g
  uptake in kidney: 29 ± 12 % ID/g
  uptake in large int.: 0.2 ± 0.1 % ID/g
  uptake in liver: 11.7 ± 7.0 % ID/g
  uptake in muscle: 0.2 ± 0.1 % ID/g
  uptake in pancreas: 0.15 ± 0.03 % ID/g
  uptake in spleen: 4.4 ± 1.2 % ID/g
[2]; 5 h p.i.
  uptake in bladder: 5.2 ± 8.9 % ID/g
  uptake in blood: 0.03 ± 0.00 % ID/g
  uptake in heart: 0.03 ± 0.01 % ID/g
  uptake in kidney: 14 ± 9 % ID/g
  uptake in large int.: 0.6 ± 0.6 % ID/g
  uptake in pancreas: 0.05 ± 0.03 % ID/g
  uptake in stomach: 0.04 ± 0.02 % ID/g
